Values after ≈ are worked out from the molar mass of the structure shown. Active and inactive are the calls of the source. No cut-off for these calls is given here.
Key:
[1] = test system: Mycobacterium tuberculosis; assay: Antitubercular activity against Mycobacterium tuberculosis H37Rv assessed as inhibition of bacterial growth by alamar blue assay; format: functional
[2] = test system: Mycobacterium tuberculosis; assay: Antitubercular activity against Mycobacterium tuberculosis expressing luxCDABE operon assessed as inhibition of bacterial growth under hypoxic conditions by low oxygen recovery assay; format: functional
[3] = test system: Mycobacteroides abscessus; assay: Antitubercular activity against Mycobacterium abscessus ATCC 19977 assessed as inhibition of bacterial growth incubated for 4 hrs by resazurin based fluorescence assay; format: functional, organism-based
[4] = test system: Mycobacterium avium; assay: Antitubercular activity against Mycobacterium avium ATCC 15769 assessed as inhibition of bacterial growth incubated for 24 hrs by resazurin based fluorescence assay; format: functional, organism-based
[5] = Cytotoxicity against African green monkey Vero cells assessed as inhibition of cell growth incubated for 3 days by resazurin based fluorescence assay; format: toxicity; conditions: African green monkey (Chlorocebus sabaeus)
[6] = test system: P388; assay: Cytotoxicity against mouse P388 cells; format: functional, cell-based
[7] = test system: HCT-8; assay: Cytotoxicity against human HCT-8 cells; format: functional, cell-based
[8] = test system: A549; assay: Cytotoxicity against human A549 cells; format: functional, cell-based
[9] = test system: MCF7; assay: Cytotoxicity against human MCF7 cells; format: functional, cell-based
[10] = test system: HeLa; assay: Cytotoxicity against human HeLa cells; format: functional, cell-based
[11] = test system: Mycobacterium tuberculosis; assay: Antitubercular activity against Mycobacterium tuberculosis H37Rv assessed as inhibition of bacterial growth at 25 ug/ml by alamar blue assay; format: functional, organism-based; conditions: dose 25.0 µg/ml

Row | Compound | MIC [1] | MIC [2] | Activity [11] | also measured
1 | O=[N+]([O-])c1cn2c(n1)OC[C@@H](OCc1ccc(OC(F)(F)F)cc1)C2 [PRETOMANID] | 0.2 µM (≈ 0.0719 µg/mL) | 2 µM (≈ 0.719 µg/mL) |  | 
2 | COc1nc2ccc(Br)cc2cc1[C@@H](c1ccccc1)[C@@](O)(CCN(C)C)c1cccc2ccccc12 [BEDAQUILINE] | 0.03 µM (≈ 0.0167 µg/mL) | 0.1 µM (≈ 0.0556 µg/mL) |  | 
3 | C#CC(O)/C=C/CCCCCCCCC/C=C\CCCCCCCCC/C=C/C(O)C#C (configuration not stated) | 1.4 µM (≈ 0.617 µg/mL) | 1 µM (≈ 0.441 µg/mL) |  | Activity [3]: inactive; Activity [4]: inactive; IC50 at 3 days [5]: 400 nM; IC50 [6]: 200 nM; IC50 [7]: 200 nM; IC50 [8]: 200 nM; IC50 [9]: 200 nM; IC50 [10]: 200 nM
4 | COc1ccc2c(c1)C[C@H]1[C@]3(C)CC[C@H]4[C@@]5(C)CCC[C@]4(CO[C@@H]5O)[C@H]3CC[C@]1(C)O2 |  |  | inactive | 
5 | COc1ccc2c(c1)C[C@H]1[C@]3(C)CC[C@@H]4[C@]5(CCC[C@@]4(C)C(=O)OC5)[C@H]3CC[C@]1(C)O2 |  |  | inactive | 
6 | C[C@]12CCC[C@](C)(C(=O)O)[C@@H]1CC[C@]1(C)[C@@H]2CC[C@]2(C)Oc3ccc(O)cc3C[C@@H]12 |  |  | inactive | 
7 | CC(=O)NC[C@H]1CN(c2ccc(N3CCOCC3)c(F)c2)C(=O)O1 [LINEZOLID] | 1 µM (≈ 0.337 µg/mL) | 1.7 µM (≈ 0.573 µg/mL) |  | 
8 | CO[C@H]1/C=C/O[C@@]2(C)Oc3c(C)c(O)c4c(O)c(c(/C=N/N5CCN(C)CC5)c(O)c4c3C2=O)NC(=O)/C(C)=C\C=C\[C@H](C)[C@H](O)[C@@H](C)[C@@H](O)[C@@H](C)[C@H](OC(C)=O)[C@@H]1C [RIFAMPIN] | 0.04 µM (≈ 0.0329 µg/mL) | 0.09 µM (≈ 0.0741 µg/mL) |  | 
9 | C[C@]12CCC[C@](C)(C=O)[C@@H]1CC[C@]1(C)[C@@H]2CC[C@]2(C)Oc3ccc(O)cc3C[C@@H]12 |  |  | inactive | 
10 | CCO[C@@H]1OC[C@]23CCC[C@]1(C)[C@@H]2CC[C@]1(C)[C@@H]3CC[C@]2(C)Oc3ccc(OC)cc3C[C@@H]12 |  |  | inactive | 
11 | COc1ccc2c(c1)C[C@H]1[C@]3(C)CC[C@@H]4[C@](C)(CCC[C@]4(C)C(=O)O)[C@H]3CC[C@]1(C)O2 |  |  | inactive | 
12 | NNC(=O)c1ccncc1 [ISONIAZID] | 0.2 µM (≈ 0.0274 µg/mL) | > 128 µM |  | 
13 | COc1ccc2c(c1)C[C@H]1[C@]3(C)CC[C@H]4[C@@]5(C)CCC[C@]4(CO[C@H]5O)[C@H]3CC[C@]1(C)O2 |  |  | inactive | 

Source: ChEMBL document CHEMBL5252606, “Isolation and Characterization of Anti-Mycobacterial Natural Products from a Petrosia sp. Marine Sponge” (J Nat Prod, 2023)
